From patent US20090312265A1, “NOVEL ANTIMICROBIAL PEPTIDES AND USE THEREOF” (priority 2006, published 2009)

System: E. coli bacteria
Assay: Antibacterial effect of HB-EGF in vitro (bacterial survival)
Type: cell-based
Details: HB-EGF at 6 μM, 2×10^6 cfu/ml E. coli, 10 mM Tris, pH 7.4
Protocol: The antibacterial effect of HB-EGF (Q99075, SEQ ID NO: 19) was evaluated in vitro. 2×10^6 cfu/ml of E. coli bacteria were incubated in 50 μl with HB-EGF at 6 μM in 10 mM Tris, pH 7.4 buffer (Tris). The difference in bacterial survival was significant for the HB-EGF treated material vs. the control (no HB-EGF present), i.e. HB-EGF does in it self posses an antibacterial effect, although less pronounced than the peptides being derived from it.

Question: For “HB-EGF: Human heparin-binding EGF-like growth factor (accession code Q99075)”, which “difference in bacterial survival vs. control” value is on record?
Answer: significant
